Data from patent publication US5554620A, “Substituted 6,11-ethano-6,11-dihydrobenzo[b] quinolizinium salts and compositions and methods of use thereof” (Sterling Winthrop Inc., priority 1994, dated 1996).

target: PCP receptor; experiment: [3H]TCP radioreceptor assay (binding to PCP recognition sites); parameters: species or system rat (male Sprague-Dawley, whole brain); details: [3H]TCP approx. 1 nM, rat brain membranes; mean of at least two determinations
Experimental: [^3 H]TCP Radioreceptor Assay
[^3 H]TCP binding to PCP recognition sites was performed as described by Vignon et al. Brain Research 1983, 280, 194-197. Male Sprague-Dawley rats were sacrificed by decapitation, and whole brains were homogenized in 10 volumes (wt/vol) of cold Tris-HCl buffer (50 mM, pH 7.7) using a Brinkmann Polytron (setting 6, 30 sec). The homogenate was centrifuged at 40,000×g for 10 min at 4° C. The supernatant was decanted, and the homogenization and centrifugation steps were repeated twice as described above. Following this, the pellet was resuspended in Tris-HCl (5 mM, pH 7.7) at a tissue concentration of 0.5-0.75 g/mL, and one mL aliquots were frozen at -70° C. until use. The binding characteristics for PCP recognition sites were not altered by the freezing of membrane suspensions.
On the day of the assay, membrane aliquots were thawed, resuspended in fresh 5 mM Tris-HCl buffer at a tissue concentration of 1 mg/mL, and stored on ice until use. Each assay tube contained 100 μl of [^3 H]TCP at a final concentration of approximately 1 nM, 100 μL of various concentrations of the compounds of interest, 500 μL of the tissue suspension and 300 μL of buffer to a final assay volume of 1 mL and a final protein concentration of 0.5 mg/tube. Non-specific binding was defined by addition of a final concentration of 100 μM PCP to blank tubes. All tubes were incubated at room temperature for 25 min before termination of the reaction by rapid filtration over Whatman GF/B glass fiber filters that had been presoaked in a solution of 0.5% polyethylenimine for at least 1 hr prior to use. Filters were washed with three 4 mL volumes of cold Tris buffer. Following addition of scintillation cocktail, the amount of bound radioactivity was determined by liquid scintillation spectrometry using a Beckman LS 5000TA liquid scintillation counter with an efficiency for tritium of approximately 55%. Inhibition constants (Ki values) were calculated using the EBDA/LIGAND program (McPherson, J. Pharmacol. Meth. 1985, 14, 213-228), purchased from ElsevierBiosoft, Inc. Results are reported as the Ki values (in nM) which are expressed as the mean of at least two separate determinations; or as a percent (%) inhibition of binding at 10 μM.

First: COc1cccc(C23c4ccccc4CC2C2c4ccccc4C3c3cccc[n+]32)c1 (stereo not shown) [5(c), 6.11[[2',3']-3'-(3-methoxyphenyl)-indanyl]6,11-dihydrobenzo[b]quinolizinium hexafluorophosphate]
Second: c1ccc(C23c4ccccc4CC2C2c4ccccc4C3c3cccc[n+]32)cc1 (stereo not shown) [Example 1F, 6,11[[2',3']-3'-phenyl-indanyl]6,11-dihydrobenzo[b]quinolizinium hexafluorophosphate]
The Ki of the first is 1.8-fold higher: 13.3 nM for the first, 7.58 nM for the second. The second binds more tightly here.

c1ccc2c(c1)C1C3CCc4sccc4C3(c3ccoc3)C2c2cccc[n+]21 (stereo not shown) [15(c), 6,11[[5',4']-4'-(3-furyl)-4',5',6',7'-tetrahydrothianaphthyl]6,11]-dihydrobenzo[b]quinolizinium hexafluorophosphate] and c1ccc2c(c1)CC1C3c4ccccc4C(c4cccc[n+]43)C21c1ccoc1 (stereo not shown) [6(c), 6,11[[2',3']-3'-(3-furyl)-indanyl]6,11-dihydrobenzo[b]quinolizinium hexafluorophosphate] are within 1.5-fold of each other in Ki: 1.4 nM for the first, 1.19 nM for the second.

CCOC1(c2ccoc2)CC2(C)c3ccccc3C1c1cccc[n+]12.[O-][Cl+3]([O-])([O-])[O-] (stereo not shown) [Example 13(a), 6,11-ethano-12-(3-furyl)-12-ethoxy-6-methyl-6,11-dihydrobenzo[b]quinolizinium perchlorate] and CCOC1(c2ccoc2)CC2c3ccccc3C1c1cccc[n+]12 (stereo not shown) [11(d), 6,11-ethano-12-(3-furyl)-12-ethoxy-6,11-dihydrobenzo[b]quinolizinium hexafluorophosphate] are within 1.5-fold of each other in Ki: 19 nM for the first, 26 nM for the second.

Compared with Oc1cccc2c1C1c3cccc[n+]3C2CC1(c1cc[nH]c1)c1cc[nH]c1 (stereo not shown) [190(b), 6,11-ethano-12,12-di(3-pyrrolyl)-10-hydroxy-6,11-dihydrobenzo[b]quinolizinium chloride], c1ccc2c(c1)C1CC(c3cc[nH]c3)(c3cc[nH]c3)C2c2cccc[n+]21 (stereo not shown) [71(F), 6,11-ethano-12,12-di(3-pyrrolyl)-6,11-dihydrobenzo[b]quinolizinium chloride] is 3.5-fold lower in Ki: 10.7 nM for the first, 3.1 nM for the second. The second binds more tightly here.

Going from c1ccc2c(c1)CC1C2C2c3ccccc3C1[n+]1ccccc12 (single isomer, unassigned) [Example 2(b), 6,11[[2',3']indanyl]6,11-dihydrobenzo[b]quinolizinium chloride] to C#CC1(c2ccccc2)CC2c3ccccc3C1c1cccc[n+]12 (single isomer, unassigned) [Example 56, 6,11-ethano-12-phenyl-12-ethynyl-6,11-dihydrobenzo[b]quinolizinium hexafluorophosphate], the Ki falls from 262 nM to 56 nM (4.7-fold). The second binds more tightly here.

First: c1ccc(C2(c3ccccc3)C3c4ccccc4C([n+]4ccccc43)C23CC3)cc1 (stereo not shown) [22(b), 6,11-ethano-12,12-diphenyl-13,13-spirocyclopropyl-6,11-dihydrobenzo[b]quinolizinium chloride]
Second: CC1C2c3ccccc3C(c3cccc[n+]32)C1(c1ccccc1)c1ccccc1 (stereo not shown) [Example 18, 6,11-ethanol-12,12-diphenyl-13-methyl-6,11-dihydrobenzo[b]quinolizinium perchlorate]
The Ki of the first is 2.1-fold lower: 9.07 nM for the first, 19.5 nM for the second. The first binds more tightly here.

Going from CC(C)Oc1cccc2c1C1c3cccc[n+]3C2CC1(c1ccccc1)c1ccccc1 (stereo not shown) [32(F), 6,11-ethano-12.12-diphenyl-10-isopropoxy-6,11-dihydrobenzo[b]quinoliziniumchloride] to COc1cccc2c1C1c3cccc[n+]3C2CC1(c1ccccc1)c1ccccc1 (stereo not shown) [Example 26, 6,11-ethano-12,12-diphenyl-10-methoxy-6,11-dihydrobenzo[b]quinolizinium chloride], the Ki falls from 468 nM to 32.7 nM (14-fold). The second binds more tightly here.

First: c1ccc2c(c1)C1CC(c3ccoc3)(c3ccoc3)C2c2c3ccccc3cc[n+]21 (stereo not shown) [180(g), 14,14-di(3-furyl)-8,13-ethano-8,13-dihydrodibenzo[a,g]quinolizinium chloride]
Second: CCOC(=O)C=CC(=O)Oc1cccc2c1C1c3cccc[n+]3C2CC1(c1ccoc1)c1ccoc1 (stereo not shown) [167(c), 6,11-ethano-12,12-di(3-furyl)-10-(OC(O)CH=CHCO2 Et)-6,11-dihydrobenzo[b]quinolizinium perchlorate]
The Ki of the first is 2.6-fold higher: 19.9 nM for the first, 7.68 nM for the second. The second binds more tightly here.

Compared with CCCCCCCCOc1cccc2c1C1c3cccc[n+]3C2CC1(c1ccoc1)c1ccoc1.[O-][Cl+3]([O-])([O-])[O-] (stereo not shown) [Example 172, 6,11-ethano-12,12-di(3-furyl)-10-octyloxy-6,11-dihydrobenzo[b]quinolizinium perchlorate], Oc1cccc(C2(c3cccc(O)c3)CC3c4ccccc4C2c2cccc[n+]23)c1.[O-][Cl+3]([O-])([O-])[O-] (stereo not shown) [Example 177, 6,11-ethano-12,12-di(m-hydroxyphenyl)-6,11-dihydrobenzo[b]quinolizinium perchlorate] is 240-fold lower in Ki: 3380 nM for the first, 13.8 nM for the second.

Going from c1ccc2c(c1)C1C3CCc4occc4C3(c3cc4ccccc4o3)C2c2cccc[n+]21 (stereo not shown) [Example 10(c), 6,11[[5',4']-4'-(2-benzofuryl)-4',5',6',7'-tetrahydrobenzofuryl]6,11-dihydrobenzo[b]quinolizinium hexafluorophosphate] to [O-][Cl+3]([O-])([O-])[O-].c1ccc(C2(c3ccccc3)CC3c4ccccc4C2c2cccc[n+]23)cc1 (stereo not shown) [111(a), 6,11-Ethano-12,12-diphenyl-6,11-dihydrobenzo[b]quinolizinium perchlorate], the Ki falls from 1100 nM to 6.07 nM (180-fold). The second binds more tightly here.

First: Fc1cc(F)c2c(c1)C1CC(c3ccccc3)(c3ccccc3)C2c2cccc[n+]21 (stereo not shown) [33(c), 6,11-ethanol-12,12-diphenyl-8,10-difluoro-6,11-dihydrobenzo[b]quinolizinium chloride 1/4 hydrate]
Second: Fc1ccc(C2(c3ccc(F)cc3)CC3c4ccccc4C2c2cccc[n+]23)cc1 (stereo not shown) [31(c), 6,11-ethano-12,12-di(p-fluorophenyl)-6,11-dihydrobenzo[b]-quinolizinium chloride]
The Ki of the first is 1.9-fold lower: 1140 nM for the first, 2210 nM for the second. The first binds more tightly here.

Compared with CC12CC(c3ccccc3)(c3ccccc3)C(c3c(O)cccc31)c1cccc[n+]12 (stereo not shown) [38(c), 6,11-ethano-12,12-diphenyl-10-hydroxy-6-methyl-6,11-dihydrobenzo[b]quinolizinium chloride], CC12CC(c3ccccc3)(c3ccccc3)C(c3ccccc31)c1cccc[n+]12 (single isomer, unassigned) [20(h), 6,11-ethano-12,12-diphenyl-6-methyl-6,11-dihydrobenzo[b]quinolizinium chloride 1/2 hydrate] is 2.3-fold lower in Ki: 16.6 nM for the first, 7.15 nM for the second.

Compared with CCOC1(c2ccoc2)C2c3ccccc3C(C1C)[n+]1ccccc12 (single isomer, unassigned) [65(c), 6,11-ethano-12-(3-furyl)-12-ethoxy-13-methyl-6,11-dihydrobenzo[b]quinolizinium hexafluorophosphate], Cn1ccc(C2(c3ccn(C)n3)CC3c4ccccc4C2c2cccc[n+]23)n1 (stereo not shown) [158(f), 6,11-ethano-12,12-di[3-(1-methylpyrazolyl)]-6,11-dihydrobenzo[b]quinolizinium chloride] is 230-fold higher in Ki: 2.8 nM for the first, 632 nM for the second.

c1cncc(C2(c3cccnc3)CC3c4ccccc4C2c2cccc[n+]23)c1 (stereo not shown) [42(E), 6,11-ethano-12,12-di(3-pyridyl)-6,11-dihydrobenzo[b]quinolizinium chloride] was tested, and the Ki was 2270 nM.

same assay, conditions: inhibition of [3H]TCP binding at 10 μM

In the case of Clc1ccc(C2(c3ccc(Cl)cc3)CC3c4ccccc4C2c2cccc[n+]23)cc1.F[P-](F)(F)(F)(F)F (stereo not shown) [43(b), 6,11-ethano-12,12-di(p-chlorophenyl)-6,11-dihydrobenzo[b]quinolizinium hexafluorophosphate], the “[3H]TCP percent inhibition @ 10 μm” value is reported as 45%.
